According to patent publication US8940760B2, “Pyrazolo pyridine derivatives as NADPH oxidase inhibitors” (Genkyotex SA, priority 2008, dated 2015):

Tests used:
[1] = tested on: NOX activities; experiment: H2DCF-DA fluorescence in TGF-β stimulated HUVEC; format: cell-based, human; details: HUVEC stimulated with TGF-β, 'usually'
Method: HUVEC are cultured in endothelial basal medium supplemented with hydrocortisone (1 μg/mL, CalbioChem), bovine brain extract (12 μg/mL), gentamicin (50 μg/mL, CalbioChem), amphotericin B (50 ng/mL, CalBioChem EGF (10 ng/mL, and 10% FCS until the fourth passage. When the fifth passage was started, cells were cultured with a lower concentration of FCS (2%) in the absence of EGF, if not indicated otherwise. All experiments were done with cells of the fifth passage. The cells were incubated with OxLDL (oxidized low-density lipoprotein) or its buffer as control for 24 h, before detection of O2^− formation.
HUVEC were plated on coverslips and made quiescent overnight in 0.5% BSA before stimulation with TGF-β. Cells were loaded for 10 minutes with 5 μM CM-H2DCFDA in phenol-red-free medium in the dark and then treated with TGF-β (R&D Systems) in the presence or absence of compounds according to the invention. Cells were then visualized by immunofluorescence microscopy after fixation and staining of the nuclei with DAPI or examined live using confocal microscopy. DCF fluorescence was visualized at an excitation wavelength of 488 nm and emission at 515 to 540 nm. […] For calculation, the absorbance at […] was normalized to absorbance at […] for each individual well. […] NOX activities were expressed as % of the activity in control cells. […]

[2] = tested on: NOX activity; experiment: Amplex Red measurement of extracellular hydrogen peroxide (NOX activity) in DMSO-differentiated HL60 cells; format: cell-based, human; details: DPI at final concentration of 10 μM, 'usually'
Method: Human acute myeloid leukemia cell line HL-60 was cultured in RPMI 1640 (Invitrogen) supplemented with 10% heat-inactivated calf serum, 2 mM glutamine, 100 U/mL penicillin (Sigma), and 100 μg streptomycin (Sigma) at 37° C. under a humidified atmosphere of 5% CO2. HL60 differentiation to the neutrophil phenotype was triggered by adding Me2SO (final concentration 1.25% v/v for 6 days) to the culture medium.
Extracellular hydrogen peroxide was measured using Amplex UltraRed (Molecular Probes). Cells were trypsinized (1× Trypsin-EDTA), collected by centrifugation, and resuspended in HBSS supplemented with 1% glucose. Cells were seeded into black 96-well plates at a density of 50,000 cells in 200 μl testing buffer (HBSS 1% glucose containing 0.005 U/mL horseradish peroxidase (Roche) and 50 μM Amplex Red in the presence or absence of compounds according to the invention. As a control, DPI was included at a final concentration of 10 μM. The plates were placed in the fluorescent Optima Fluorescent plate reader and kept at 37° C. during 20 min. Fluorescence was measured for 15 min with excitation and emission wavelengths of 544 nm and 590 nm respectively. NOX activities were expressed as % of the activity in control cells. Residual activity of DPI-treated cells was usually <10%.

[3] = tested on: NOX activities; experiment: Nitroblue tetrazolium (NBT) test of intracellular and extracellular superoxide in cells; format: cell-based; details: DPI at final concentration of 10 μM, 'usually'
Method: Intracellular and extracellular superoxide was measured by a colorimetric technique using a quantitative nitroblue tetrazolium (NBT) test. SOD-inhibitable conversion of NBT to formazan, a fine blue precipitate, in the presence of superoxide anion was measured using Fluostar Optima spectrometer (BMG labtech). Following incubation with appropriate stimuli, cells were trypsinized (1× Trypsin-EDTA), collected by centrifugation, and washed with PBS to remove medium. 5×10^5 cells were plated on 48-well plates and incubated in Hank's balanced salt solution containing 0.5 mg/mL NBT with or without 800 U/mL SOD in the presence or absence of compounds according to the invention. As a control, DPI was included at a final concentration of 10 μM. After 2.5 h, cells were fixed and washed with methanol to remove non reduced NBT. The reduced formazan was then dissolved in 230 μl of 2M potassium hydroxide and in 280 μl of dimethylsulfoxide. The absorption was measured at 630 nm. For calculation, the absorbance at 630 nm was normalized for each individual well. The mean of the four blank values was substracted from each corrected value for each time point. NOX activities were expressed as % of the activity in control cells. Residual activity of DPI-treated cells was usually <10%.

[4] = tested on: NOX activities; experiment: Chemiluminescence (luminol) measurement of ROS in cells; format: cell-based; details: 'usually'
Method: ROS was measured using the chemiluminescent probe luminol. Cells were cultured and plated as for Amplex Red except that the Amplex Red agent was replaced by 10 μg/mL luminol (Sigma 09235). Light emission was recorded continuously at 37° C. for 60 minutes using the luminescence function of the FluoStar Optima fluorescent plate reader. The mean of the four blank values was substracted from each corrected value for each time point. NOX activities were expressed as % of the activity in control cells. Residual activity of DPI-treated cells was usually <10%.

Measured: Residual activity of DPI-treated cells (NOX activity as % of control cells)

c1ccc([I+]c2ccccc2)cc1 [DPI, Diphenyl-iodonium]
< 10%: all assays above
